Source: patent EP3720857B1, “2-OXO-5H-CHROMENO[4,3-B]PYRIDINES FOR USE IN THE TREATMENT OF HEPATITIS B” (Galapagos NV, priority 2017, dated 2019)

Test system: hepatitis virus B (HBV) infection
Assay: iCell hepatocytes assay, standard assay (HBc staining, HBe ELISA, HBs ELISA)
Type: cell-based
Details: for EC50: Hepatitis B virus, Hepatocyte
Experimental: The principle of the iCell hepatocyte 2.0 96 well assay is to evaluate the inhibitory effect of a test compound on hepatitis virus B (HBV) infection. In this assays the HBV core antigen (HBcAg) and/or extracellular antigen (HBeAg) and/or surface antigen (HBsAg) are used as a marker for HBV infection. Nuclei count may be used as an indication for compound toxicity.
In the standard assay set-up HBV infection and compound addition are performed on the same day, in the delayed assay the compounds are added three days after HBV infection. iCell hepatocytes 2.0 are human hepatocytes derived from induced pluripotent stem cells (iPSc) purchased from Cellular Dynamics international (CDI, R1027).
At day 0, iCell hepatocytes 2.0 (CDI, R1027) are thawed and seeded in collagen I coated 96well plates at 112 000c/well (100µL) in plating medium (RPMI supplemented with B27 supplement, 20 ng/mL recombinant human oncostatin M (OSM), 25µg/mL gentamicin, 0.1µM Dexamethasone and iCell medium supplement provided by CDI). Plates are incubated at 37°C, 5% CO2 and daily refreshed with plating medium for the following four days.
On day 5 and 6, plates are refreshed with 100µL maintenance medium (RPMI supplemented with B27 supplement, 25µg/mL gentamicin, 0.1µM Dexamethasone, and iCell medium supplement provided by CDI) and incubated at 37°C, 5% CO2 until the following day.
On day 7 (day of infection) the supernatant is removed from the assay plates and 25 µL of 1/250 diluted compound in maintenance medium and 25 µL of HBV mix (HBV virus, 8% PEG, 0% or 4% DMSO in maintenance medium) are added to the assay plates. Compounds series are either prepared manually as a 6 point serial dilution using 1/5 dilution steps in 100% DMSO or as an 8 point serial dilution using 1/3 dilution steps in 100% DMSO or as an 8 point serial dilution using ¼ dilution steps, normalized for 0.2% DMSO. The assay plates were incubated overnight at 37°C, 5% CO2.
On day 1 post infection (day 8) 50 µL of HBV/cpd mix is removed from the assay plates and refreshed with 100 µL of compound series diluted 1/500 in maintenance medium. The assay plates are incubated at 37°C, 5% CO2 and refreshed with compound series diluted 1/500 in maintenance medium every other day (at day 3 and day 5 post infection) or after three days of incubation (at day 4 post infection).
At day 7 post infection (day 14), 100µL of supernatant is harvested and frozen at -20°C. The cells were fixed with 50 µL of 3.7% formaldehyde and incubated for 30 min at room temperature. After fixation, cells are washed four times with phosphate buffer saline (PBS) with the plate washer (Select 405, microplate washer, Biotek) and subjected to HBc staining. The harvested supernatant is used for HBe and/or HBs ELISA.
The assay plates are blocked with blocking buffer (2% FBS, 3% BSA, 0.2% TritonX100 in PBS) for 1 h at room temperature.
After blocking, the assay plates are tapped manually and incubated with 50 µL diluted primary antibody (1/700 Rabbit-anti-HBc Ag, Dako, B0586 or 1/350 Rabbit-anti-HBc Ag, Invitrogen, PA516368) in blocking buffer and incubated for 90 min at room temperature.
After 4 washes of PBST (1XPBS + 0.05% Tween) with the plate washer, the assay plates are incubated with 100 µL of secondary antibody (Donkey-anti-rabbit Alexa 488, Lifetechnologies, A21206) 1/500 diluted in blocking buffer and incubated for 60 min at room temperature in the dark, then washed 4 times with PBST on the plate washer and incubated with 100µL of DAPI (Sigma D9542, stock 5mg/mL) 1/10000 diluted in PBS for 15-30 min at room temperature in the dark.
Finally, the assay plates are read out on a InCell Analyzer 2200 (GE Healthcare).
A white lumitrac 600 384 well plate iss coated with 40µL of capture antibody (monoclonal Mouse-anti-HBe Ag, Fitzgerald, 10-H10) diluted 1/2000 in coating buffer (0.1M sodium carbonate pH 9.5) and incubated overnight at 4°C. […]

CCC1Oc2cc(OCCCOC)c(F)cc2-c2c1cc(C(=O)O)c(=O)n2C1CC1 (stereo not drawn) [Compound 16, 1-cyclopropyl-5-ethyl-9-fluoro-8-(3-methoxypropoxy) -2-oxo-5H-chromeno[4,3-b]pyridine-3-carboxylic acid]
Standard assay HBs ELISA % inhibition: ++ (50-75%) | EC50: 22 to 50 nM

COCCCOc1cc2c(cc1F)-c1c(cc(C(=O)O)c(=O)n1C1CC1)C(C(C)C)O2 (stereo not drawn) [Compound 1, 1-cyclopropyl-9-fluoro-5-isopropyl-8-(3-methoxypropoxy)-2-oxo-5H-chromeno[4,3-b]pyridine-3-carboxylic acid]
Standard assay HBs ELISA % inhibition: ++ (50-75%) | EC50: 0.001 to 20 nM

COCCCOc1cc2c(cc1Cl)-c1c(cc(C(=O)O)c(=O)n1C1CC1)[C@H](C1(C)COC1)O2 [Compound 46, (5R)-9-chloro-1-cyclopropyl-8-(3-methoxypropoxy)-5-(3-methyloxetan-3-yl)-2-oxo-5H-chromeno[4,3-b]pyridine-3-carboxylic acid]
Standard assay HBs ELISA % inhibition: +++ (75-100%) | EC50: 0.001 to 20 nM

COCCCOc1cc2c(cc1Cl)-c1c(cc(C(=O)O)c(=O)n1C1CC1)C(C(C)(C)COC)O2 (stereo not drawn) [Compound 19, 9-chloro-1-cyclopropyl-5-(2-methoxy-1,1-dimethyl-ethyl)-8-(3-methoxypropoxy) -2-oxo-5H-chromeno[4,3-b]pyridine-3-carboxylic acid]
Standard assay HBs ELISA % inhibition: ++ (50-75%) | EC50: 22 to 50 nM

COCCCOc1cc2c(cc1Cl)-c1c(cc(C(=O)O)c(=O)n1C1CC1)CO2 [Compound 6, 9-chloro-1-cyclopropyl-8-(3-methoxypropoxy) -2-oxo-5H-chromeno[4,3-b]pyridine-3-carboxylic acid]
Standard assay HBs ELISA % inhibition: +++ (75-100%) | EC50: 0.001 to 20 nM

COCCCOc1cc2c(cc1F)-c1c(cc(C(=O)O)c(=O)n1C1CC1)[C@H](C(C)C)O2 [Compound 44, (5S)-1-cyclopropyl-9-fluoro-5-isopropyl-8-(3-methoxypropoxy)-2-oxo-5H-chromeno[4,3-b]pyridine-3-carboxylic acid]
Standard assay HBs ELISA % inhibition: ++ (50-75%) | EC50: 22 to 50 nM
